Measured values reported in patent US20230092890A1, “1, 3, 4-Oxadiazole derivative compounds as histone deacetylase 6 inhibitor, and the pharmaceutical composition comprising the same” (Chong Kun Dang Pharmaceutical Corp., priority 2019, published 2023).

What was measured:
[1] = molecular target: T1, HDAC1 (Homo sapiens, UniProt Q13547); assay: HDAC enzyme activity inhibition (in vitro), HDAC1 Fluorimetric Drug Discovery Assay Kit; type: biochemical; details: samples at 100, 1000 and 10000 nM; 37° C. 60 minutes; fluorescence Ex 390, Em 460; read-out: HDAC1 IC50
T1 construct: purchased Enzolifesciences BML-AK511
T1 sequence (Q13547 whole entry): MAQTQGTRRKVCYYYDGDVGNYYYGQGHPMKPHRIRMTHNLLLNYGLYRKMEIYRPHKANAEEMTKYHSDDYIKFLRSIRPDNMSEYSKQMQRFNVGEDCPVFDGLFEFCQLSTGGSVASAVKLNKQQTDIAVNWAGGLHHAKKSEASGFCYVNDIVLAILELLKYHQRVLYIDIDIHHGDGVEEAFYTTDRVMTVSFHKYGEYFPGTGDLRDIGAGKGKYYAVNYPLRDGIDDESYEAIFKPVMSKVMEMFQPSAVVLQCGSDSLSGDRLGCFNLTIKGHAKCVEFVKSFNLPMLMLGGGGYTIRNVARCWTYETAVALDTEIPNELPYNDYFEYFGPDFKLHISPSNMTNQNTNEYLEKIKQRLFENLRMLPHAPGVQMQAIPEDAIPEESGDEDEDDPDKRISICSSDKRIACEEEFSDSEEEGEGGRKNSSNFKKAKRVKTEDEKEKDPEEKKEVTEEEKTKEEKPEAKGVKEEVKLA
Procedure, shortened: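 Fluorimetric read-out (Ex 390, Em 460) after a 60 min 37° C enzyme reaction and 30 min 37° C developer step. Tested levels: 0.1-1000 nM (0.1, 1, 10, 100, 1000) on recombinant human HDAC6; 100, 1000 and 10000 nM on HDAC1 kit enzyme.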

[2] = molecular target: T2, HDAC6 human recombinant (Homo sapiens, UniProt Q9UBN7); assay: HDAC enzyme activity inhibition (in vitro), HDAC6 assay; type: biochemical; details: samples at 0.1, 1, 10, 100 and 1000 nM; 37° C. 60 minutes; fluorescence Ex 390, Em 460; read-out: HDAC6 IC50
T2 construct: purchased Calbiochem 382180
T2 sequence (Q9UBN7 1-1215): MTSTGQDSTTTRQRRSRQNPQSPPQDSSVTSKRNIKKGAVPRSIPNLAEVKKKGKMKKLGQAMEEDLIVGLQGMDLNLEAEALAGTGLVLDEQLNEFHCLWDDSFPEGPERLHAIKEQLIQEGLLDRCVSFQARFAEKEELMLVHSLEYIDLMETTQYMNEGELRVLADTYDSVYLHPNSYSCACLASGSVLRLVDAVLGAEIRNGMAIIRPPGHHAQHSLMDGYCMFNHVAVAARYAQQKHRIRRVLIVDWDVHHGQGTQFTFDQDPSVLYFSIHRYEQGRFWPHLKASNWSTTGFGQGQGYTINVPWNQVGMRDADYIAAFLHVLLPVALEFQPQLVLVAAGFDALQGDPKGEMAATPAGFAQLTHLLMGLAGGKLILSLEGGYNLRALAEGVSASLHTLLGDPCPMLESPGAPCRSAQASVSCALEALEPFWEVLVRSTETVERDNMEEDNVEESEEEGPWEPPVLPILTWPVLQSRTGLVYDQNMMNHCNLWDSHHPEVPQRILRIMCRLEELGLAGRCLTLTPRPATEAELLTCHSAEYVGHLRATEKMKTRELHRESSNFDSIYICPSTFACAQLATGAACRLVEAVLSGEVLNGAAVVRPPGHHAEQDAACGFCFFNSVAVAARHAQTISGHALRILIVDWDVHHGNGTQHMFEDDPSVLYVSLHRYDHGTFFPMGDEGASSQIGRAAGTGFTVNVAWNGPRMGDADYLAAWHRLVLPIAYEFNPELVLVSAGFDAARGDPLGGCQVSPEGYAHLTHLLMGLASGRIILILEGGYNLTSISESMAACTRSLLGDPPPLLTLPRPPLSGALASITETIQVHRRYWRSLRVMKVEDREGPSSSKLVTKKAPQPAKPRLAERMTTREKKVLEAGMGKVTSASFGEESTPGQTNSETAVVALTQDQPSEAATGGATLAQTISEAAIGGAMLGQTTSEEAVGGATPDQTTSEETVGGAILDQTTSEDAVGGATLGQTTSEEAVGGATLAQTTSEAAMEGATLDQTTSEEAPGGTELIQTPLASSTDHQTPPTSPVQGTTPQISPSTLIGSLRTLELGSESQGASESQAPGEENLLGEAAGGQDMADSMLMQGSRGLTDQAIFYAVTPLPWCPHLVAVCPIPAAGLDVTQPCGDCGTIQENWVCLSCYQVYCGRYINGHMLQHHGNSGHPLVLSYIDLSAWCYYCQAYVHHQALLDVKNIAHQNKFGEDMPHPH
Procedure, shortened: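 Fluorescence (Ex 390, Em 460) read after a 37° C, 60 min enzyme reaction and a further 30 min developer step at 37° C. Uses recombinant human HDAC6; HDAC1 arm dosed at 100, 1000, 10000 nM.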

Compound | IC50 [1] | IC50 [2]
Cn1c(=O)n(Cc2ccc(-c3nnc(C(F)F)o3)cn2)c2cc(F)c(-c3cnc(N4CCN(C(=O)OC(C)(C)C)CC4)nc3)cc21 [Compound 341, tert-butyl 4-(5-(1-((5-(5-(difluoromethyl)-1,3,4-oxadiazole-2-yl)pyridine-2-yl)methyl)-6-fluoro-3-methyl-2-oxo-2,3-dihydro-1H-benzo[d]imidazole-5-yl)pyrimidine-2-yl)piperazine-1-carboxylate] | > 10000 nM | 208 nM
CN1CCN(c2ncc(-c3cc4c(cc3F)n(Cc3ccc(-c5nnc(C(F)F)o5)cn3)c(=O)n4C)cn2)CC1 [Compound 342, 1-((5-(5-(difluoromethyl)-1,3,4-oxadiazole-2-yl)pyridine-2-yl)methyl)-6-fluoro-3-methy 1-5-(2-(4-methylpiperazine-1-yl)pyrimidine-5-yl)-1,3-dihydro-2H-benzo[d]imidazole-2-one] | > 10000 nM | 16 nM
Cn1c(=O)n(Cc2ccc(-c3nnc(C(F)F)o3)cn2)c2cc(F)c(-c3cnc(N4CCN(C5COC5)CC4)nc3)cc21 [Compound 343, 1-((5-(5-(difluoromethyl)-1,3,4-oxadiazole-2-yl)pyridine-2-yl)methyl)-6-fluoro-3-methy 1-5-(2-(4-(oxetan-3-yl)piperazine-1-yl)pyrimidine-5-yl)-1,3-dihydro-2H-benzo[d]imidazole-2-one] | > 10000 nM | 19 nM
O=c1oc2cc(-c3cncc(N4CCOCC4)c3)c(F)cc2n1Cc1ccc(-c2nnc(C(F)F)o2)cn1 [Compound 348, 3-((5-(5-(difluoromethyl)-1,3,4-oxadiazole-2-yl)pyridine-2-yl)methyl)-5-fluoro-6-(5-morpholinopyridine-3-yl)benzo[d]oxazole-2(3H)-one] | > 10000 nM | 25 nM
CC(C)(C)OC(=O)N1CCC(n2cc(-c3ccc4c(c3)sc(=O)n4Cc3ccc(-c4nnc(C(F)F)o4)cn3)cn2)CC1 [Compound 352, tert-butyl 4-(4-(3-((5-(5-(difluoromethyl)-1,3,4-oxadiazole-2-yl)pyridine-2-yl)methyl)-2-oxo-2,3-dihydrobenzo[d]thiazole-6-yl)-1H-pyrazole-1-yl)piperidine-1-carboxylate] | > 10000 nM | 170 nM
CN1CCC(n2cc(-c3ccc4c(c3)sc(=O)n4Cc3ccc(-c4nnc(C(F)F)o4)cn3)cn2)CC1 [Compound 353, 3-((5-(5-(difluoromethyl)-1,3,4-oxadiazole-2-yl)pyridine-2-yl)methyl)-6-(1-(1-methylpiperidine-4-yl)-1H-pyrazole-4-yl)benzo[d]thiazole-2(3H)-one] | > 10000 nM | 19 nM
CC(C)N1CCC(n2cc(-c3ccc4c(c3)sc(=O)n4Cc3ccc(-c4nnc(C(F)F)o4)cn3)cn2)CC1 [Compound 354, 3-((5-(5-(difluoromethyl)-1,3,4-oxadiazole-2-yl)pyridine-2-yl)methyl)-6-(1-(1-isopropylpiperidine-4-yl)-1H-pyrazole-4-yl)benzo[d]thiazole-2(3H)-one] | > 10000 nM | 16 nM
O=c1sc2cc(-c3cnn(C4CCN(C5COC5)CC4)c3)ccc2n1Cc1ccc(-c2nnc(C(F)F)o2)cn1 [Compound 355, 3-((5-(5-(difluoromethyl)-1,3,4-oxadiazole-2-yl)pyridine-2-yl)methyl)-6-(1-(1-(oxetan-3-yl)piperidine-4-yl)-1H-pyrazole-4-yl)benzo[d]thiazole-2(3H)-on] | > 10000 nM | 23 nM
O=c1sc2cc(-c3cnn(C4CCN(CC(F)(F)F)CC4)c3)ccc2n1Cc1ccc(-c2nnc(C(F)F)o2)cn1 [Compound 356, 3-((5-(5-(difluoromethyl)-1,3,4-oxadiazole-2-yl)pyridine-2-yl)methyl)-6-(1-(1-(2,2,2-trifluoroethyl)piperidine-4-yl)-1H-pyrazole-4-yl)benzo[d]thiazole-2(3H)-one] | > 10000 nM | 84 nM
O=c1sc2cc(-c3cnn(C4CCN(CC5(F)CC5)CC4)c3)ccc2n1Cc1ccc(-c2nnc(C(F)F)o2)cn1 [Compound 357, 3-((5-(5-(difluoromethyl)-1,3,4-oxadiazole-2-yl)pyridine-2-yl)methyl)-6-(1-(1-((1-fluorocyclopropyl)methyl)piperidine-4-yl)-1H-pyrazole-4-yl)benzo[d]thiazole-2(3H)-one] | > 10000 nM | 42 nM

Other lines, results leading:

IC50 [1] | IC50 [2] | Compound
> 10000 nM | 671 nM | CC(C)(C)OC(=O)N1CCN(c2ccc(-c3cc4oc(=O)n(Cc5ccc(-c6nnc(C(F)F)o6)cn5)c4cc3F)cn2)CC1 [Compound 344, tert-butyl 4-(5-(3-((5-(5-(difluoromethyl)-1,3,4-oxadiazole-2-yl)pyridine-2-yl)methyl)-5-fluoro-2-oxo-2,3-dihydrobenzo[d]oxazole-6-yl)pyridine-2-yl)piperazine-1-carboxylate]
> 10000 nM | 22 nM | O=c1oc2cc(-c3ccc(N4CCNCC4)nc3)c(F)cc2n1Cc1ccc(-c2nnc(C(F)F)o2)cn1 [Compound 345, 3-((5-(5-(difluoromethyl)-1,3,4-oxadiazole-2-yl)pyridine-2-yl)methyl)-5-fluoro-6-(6-(piperazine-1-yl)pyridine-3-yl)benzo[d]oxazole-2(3H)-one]
> 10000 nM | 47 nM | CN1CCN(c2ccc(-c3cc4oc(=O)n(Cc5ccc(-c6nnc(C(F)F)o6)cn5)c4cc3F)cn2)CC1 [Compound 346, 3-((5-(5-(difluoromethyl)-1,3,4-oxadiazole-2-yl)pyridine-2-yl)methyl)-5-fluoro-6-(6-(4-methylpiperazine-1-yl)pyridine-3-yl)benzo[d]oxazole-2(3H)-one]
> 10000 nM | 62 nM | CCN1CCN(c2ccc(-c3cc4oc(=O)n(Cc5ccc(-c6nnc(C(F)F)o6)cn5)c4cc3F)cn2)CC1 [Compound 347, 3-((5-(5-(difluoromethyl)-1,3,4-oxadiazole-2-yl)pyridine-2-yl)methyl)-6-(6-(4-ethylpiperazine-1-yl)pyridine-3-yl)-5-fluorobenzo[d]oxazole-2(3H)-one]
> 10000 nM | 55 nM | CC(C)N1CCN(c2ccc(-c3cc4oc(=O)n(Cc5ccc(-c6nnc(C(F)F)o6)cn5)c4cc3F)cn2)CC1 [Compound 349, 3-((5-(5-(difluoromethyl)-1,3,4-oxadiazole-2-yl)pyridine-2-yl)methyl)-5-fluoro-6-(6-(4-isopropylpiperazine-1-yl)pyridine-3-yl)benzo[d]oxazole-2(3H)-one]
> 10000 nM | 33 nM | O=c1oc2cc(-c3ccc(N4CCN(C5COC5)CC4)nc3)c(F)cc2n1Cc1ccc(-c2nnc(C(F)F)o2)cn1 [Compound 350, 3-((5-(5-(difluoromethyl)-1,3,4-oxadiazole-2-yl)pyridine-2-yl)methyl)-5-fluoro-6-(6-(4-(oxetan-3-yl)piperazine-1-yl)pyridine-3-yl)benzo[d]oxazole-2(3H)-one]
> 10000 nM | 151 nM | O=c1oc2cc(-c3ccc(N4CCN(CC(F)(F)F)CC4)nc3)c(F)cc2n1Cc1ccc(-c2nnc(C(F)F)o2)cn1 [Compound 351, 3-((5-(5-(difluoromethyl)-1,3,4-oxadiazole-2-yl)pyridine-2-yl)methyl)-5-fluoro-6-(6-(4-(2,2,2-trifluoroethyl)piperazine-1-yl)pyridine-3-yl)benzo[d]oxazole-2(3H)-one]
